Assay results reported in patent US20200102295A1, “NITROCATECHOL DERIVATIVES AS COMT INHIBITORS” (BIAL - PORTELA & CA, S.A., priority 2005, published 2020).
Several values for one entry are separate records, joined by “and”; a condition that tells them apart may be missing. Equal values may be shown once.

Experiments:
[1] = target: T1, mouse liver COMT (Mus musculus, UniProt O88587); assay: Mouse liver COMT activity after oral administration of test compounds; type: in vivo; details: 3 mg/kg oral, 3 h after administration
T1 construct: Aliquots of 0.5 ml of liver homogenates were preincubated; from tissue; host or cells: mouse liver homogenate (NMRI mice, dosed orally; ex vivo activity)
T1 sequence (O88587 1-265): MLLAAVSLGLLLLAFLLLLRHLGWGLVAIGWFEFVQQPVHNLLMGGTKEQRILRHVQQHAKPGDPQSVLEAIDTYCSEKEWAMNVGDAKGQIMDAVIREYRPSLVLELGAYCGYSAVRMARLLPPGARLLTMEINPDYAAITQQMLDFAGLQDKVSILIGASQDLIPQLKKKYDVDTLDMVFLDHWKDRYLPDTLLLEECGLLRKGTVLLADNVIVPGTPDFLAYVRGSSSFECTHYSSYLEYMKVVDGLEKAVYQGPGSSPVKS

[2] = system: Neuro 2A mouse neuroblastoma cells; assay: Cell toxicity: Neuro 2A cell viability (calcein-AM); type: cell-based; details: Neuro 2A cells, 30 μM, 24 h exposure

Compound	COMT activity (% of control) ([1]; 3 mg/kg)	% of viable cells [2]	COMT activity (% of control) [1]
Cc1noc(-c2cc(O)c(O)c([N+](=O)[O-])c2)n1 [Compound 1, 5-(3-methyl-1,2,4-oxadiazol-5-yl)-3-nitropyrocatechol, reference compound]	59 % of control and 59.9 % of control	55% and 55.1%	–
Cc1nc(-c2cc(O)c(O)c([N+](=O)[O-])c2)no1 [Compound 2, 5-(5-Methyl-[1,2,4]oxadiazol-3-yl)-3-nitro-benzene-1,2-diol]	79 % of control and 78.8 % of control	92.5%	–
Cc1nnc(-c2cc(O)c(O)c([N+](=O)[O-])c2)o1 [Compound 3, 5-(5-Methyl-[1,3,4]oxadiazol-2-yl)-3-nitro-benzene-1,2-diol]	64 % of control and 63.6 % of control	100.5%	–
O=[N+]([O-])c1cc(-c2nc(-c3cc[n+]([O-])cc3)no2)cc(O)c1O [Compound 4, 3-Nitro-5-[3-(1-oxy-pyridin-4-yl)-[1,2,4]oxadiazol-5-yl]-benzene-1,2-diol]	–	98.3%	42.1 % of control
O=[N+]([O-])c1cc(-c2nc(-c3ccc[n+]([O-])c3)no2)cc(O)c1O [Compound 5, 3-Nitro-5-[3-(1-oxy-pyridin-3-yl)-[1,2,4]oxadiazol-5-yl]-benzene-1,2-diol]	–	93.8%	58.4 % of control
O=[N+]([O-])c1cc(-c2nc(-c3cccc[n+]3[O-])no2)cc(O)c1O [Compound 6, 3-Nitro-5-[3-(1-oxy-pyridin-2-yl)-[1,2,4]oxadiazol-5-yl]-benzene-1,2-diol]	–	107.1%	101.0 % of control
O=[N+]([O-])c1cc(-c2nc(-c3c(Cl)c[n+]([O-])cc3Cl)no2)cc(O)c1O [Compound 7, 5-[3-(3,5-Dichloro-1-oxy-pyridin-4-yl)-[1,2,4]oxadiazol-5-yl]-3-nitro-benzene-1,2-diol]	–	56.9%	14.2 % of control
O=[N+]([O-])c1cc(-c2nc(-c3cc[n+]([O-])c(Cl)c3)no2)cc(O)c1O [Compound 8, 5-[3-(2-Chloro-1-oxy-pyridin-4-yl)-[1,2,4]oxadiazol-5-yl]-3-nitro-benzene-1,2-diol]	–	106.7%	55.4 % of control
O=[N+]([O-])c1cc(-c2nc(-c3cc[n+]([O-])c(-c4ccccc4)c3)no2)cc(O)c1O [Compound 9, 3-Nitro-5-[3-(1-oxy-2-phenyl-pyridin-4-yl)-[1,2,4]oxadiazol-5-yl]-benzene-1,2-diol]	–	79.7%	80.6 % of control
O=[N+]([O-])c1cc(-c2nc(-c3cc[n+]([O-])c(-c4ccoc4)c3)no2)cc(O)c1O [Compound 10, 5-[3-(2-Furan-3-yl-1-oxy-pyridine-4-yl)-[1,2,4]oxadiazol-5-yl]-3-nitro-benzene-1,2-diol]	–	69.3%	95.2 % of control
O=[N+]([O-])c1cc(-c2nc(-c3cc[n+]([O-])c(N4CCOCC4)c3)no2)cc(O)c1O [Compound 11, 5-[3-(2-Morpholin-4-yl-1-oxy-pyridine-4-yl)-[1,2,4]oxadiazol-5-yl]-3-nitro-benzene-1,2-diol]	–	105.7%	63.9 % of control
O=[N+]([O-])c1cc(-c2nc(-c3cc[n+]([O-])c(N4CCSCC4)c3)no2)cc(O)c1O [Compound 12, 3-Nitro-5-[3-(1-oxy-2-thiomorpholin-4-yl-pyridin-4-yl)-[1,2,4]oxadiazol-5-yl]-benzene-1,2-diol]	–	91.7%	92.9 % of control
O=[N+]([O-])c1cc(-c2nc(-c3cc[n+]([O-])c(Sc4ccccc4)c3)no2)cc(O)c1O [Compound 13, 3-Nitro-5-[3-(1-oxy-2-phenylsulfanyl-pyridin-4-yl)-[1,2,4]oxadiazol-5-yl]-benzene-1,2-diol]	–	–	102.3 % of control
O=[N+]([O-])c1cc(-c2nc(-c3cc[n+]([O-])c(Oc4ccccc4)c3)no2)cc(O)c1O [Compound 14, 3-Nitro-5-[3-(1-oxy-2-phenoxy-pyridin-4-yl)-[1,2,4]oxadiazol-5-yl]-benzene-1,2-diol]	–	83.5%	76.8 % of control
Cc1cc(-c2noc(-c3cc(O)c(O)c([N+](=O)[O-])c3)n2)cc(C)[n+]1[O-] [Compound 15, 5-[3-(2,6-Dimethyl-1-oxy-pyridine-4-yl)-[1,2,4]oxadiazol-5-yl]-3-nitro-benzene-1,2-diol]	–	97.1%	79.2 % of control
CS(=O)(=O)c1cc(-c2noc(-c3cc(O)c(O)c([N+](=O)[O-])c3)n2)cc[n+]1[O-] [Compound 16, 5-[3-(2-Methanesulfonyl-1-oxy-pyridine-4-yl)-[1,2,4]oxadiazol-5-yl]-3-nitro-benzene-1,2-diol]	–	64.6%	85.9 % of control
CSc1cc(-c2noc(-c3cc(O)c(O)c([N+](=O)[O-])c3)n2)cc[n+]1[O-] [Compound 17, 5-[3-(2-Methylsulfanyl-1-oxy-pyridine-4-yl)-[1,2,4]oxadiazol-5-yl]-3-nitro-benzene-1,2-diol]	–	96.0%	89.9 % of control
O=[N+]([O-])c1cc(-c2nc(-c3cc(Br)c[n+]([O-])c3)no2)cc(O)c1O [Compound 19, 5-[3-(5-Bromo-1-oxy-pyridin-3-yl)-[1,2,4]oxadiazol-5-yl]-3-nitro-benzene-1,2-diol]	–	100.1%	45.2 % of control
Cc1ccc(-c2noc(-c3cc(O)c(O)c([N+](=O)[O-])c3)n2)c[n+]1[O-] [Compound 20, 5-[3-(6-Methyl-1-oxy-pyridin-3-yl)-[1,2,4]oxadiazol-5-yl]-3-nitro-benzene-1,2-diol]	–	–	56.6 % of control
Cc1cc[n+]([O-])cc1-c1noc(-c2cc(O)c(O)c([N+](=O)[O-])c2)n1 [Compound 21, 5-[3-(4-Methyl-1-oxy-pyridin-3-yl)-[1,2,4]oxadiazol-5-yl]-3-nitro-benzene-1,2-diol]	–	–	95.6 % of control
O=[N+]([O-])c1cc(-c2nc(-c3cc(-c4ccccc4)c[n+]([O-])c3)no2)cc(O)c1O [Compound 22, 3-Nitro-5-[3-(1-oxy-5-phenyl-pyridin-3-yl)-[1,2,4]oxadiazol-5-yl]-benzene-1,2-diol]	–	–	111.6 % of control
O=[N+]([O-])c1cc(-c2nc(-c3ccc(Cl)[n+]([O-])c3)no2)cc(O)c1O [Compound 23, 5-[3-(6-Chloro-1-oxy-pyridin-3-yl)-[1,2,4]oxadiazol-5-yl]-3-nitro-benzene-1,2-diol]	–	41.1%	43 % of control
O=[N+]([O-])c1cc(-c2nc(-c3ccc[n+]([O-])c3Cl)no2)cc(O)c1O [Compound 24, 5-[3-(2-Chloro-1-oxy-pyridin-3-yl)-[1,2,4]oxadiazol-5-yl]-3-nitro-benzene-1,2-diol]	–	93.7%	71.8 % of control
Cc1ccc(-c2noc(-c3cc(O)c(O)c([N+](=O)[O-])c3)n2)c(Cl)[n+]1[O-] [Compound 25, 5-[3-(2-Chloro-6-methyl-1-oxy-pyridin-3-yl)-[1,2,4]oxadiazol-5-yl]-3-nitro-benzene-1,2-diol]	–	100.2%	23.1 % of control
O=[N+]([O-])c1cc(-c2nc(-c3ccc[n+]([O-])c3N3CCOCC3)no2)cc(O)c1O [Compound 26, 5-[3-(2-Morpholin-4-yl-1-oxy-pyridin-3-yl)-[1,2,4]oxadiazol-5-yl]-3-nitro-benzene-1,2-diol]	–	110.9%	35.5 % of control
CSc1ccc(-c2noc(-c3cc(O)c(O)c([N+](=O)[O-])c3)n2)c[n+]1[O-] [Compound 27, 5-[3-(6-Methylsulfanyl-1-oxy-pyridin-3-yl)-[1,2,4]oxadiazol-5-yl]-3-nitro-benzene-1,2-diol]	–	95.7%	47.5 % of control
O=[N+]([O-])c1cc(-c2nc(-c3ccc(C(F)(F)F)[n+]([O-])c3)no2)cc(O)c1O [Compound 28, 3-Nitro-5-[3-(1-oxy-6-trifluoromethyl-pyridin-3-yl)-[1,2,4]oxadiazol-5-yl]-benzene-1,2-diol]	–	87.0%	11.3 % of control
O=[N+]([O-])c1cc(-c2nc(-c3cc[n+]([O-])c4ccccc34)no2)cc(O)c1O [Compound 34, 3-Nitro-5-[3-(1-oxy-quinolin-4-yl)-[1,2,4]oxadiazol-5-yl]-benzene-1,2-diol]	–	–	88.6 % of control
O=[N+]([O-])c1cc(-c2nc(-c3cc4ccccc4[n+]([O-])c3)no2)cc(O)c1O [Compound 35, 3-Nitro-5-[3-(1-oxy-quinolin-3-yl)-[1,2,4]oxadiazol-5-yl]-benzene-1,2-diol]	–	–	81.2 % of control
O=[N+]([O-])c1cc(-c2nc(COc3ccc(C(F)(F)F)c[n+]3[O-])no2)cc(O)c1O [Compound 44, 3-Nitro-5-[3-(1′-oxy-5-trifluoromethyl-pyridin-2-yloxymethyl)-[1,2,4]oxadiazol-5-yl]-benzene-1,2-diol]	–	–	24.5 % of control
